Columns and labels:
[1] = system: AKT phosphorylation in LP1 and JJN3 cells; experiment: IGF-1-stimulated AKT phosphorylation, immunoblotting (Figure 3A); type: cell-based; conditions: 100 μM, 2 hrs, IGF-1 15 min
Experimental: To elucidate this specificity, we first evaluated its effects on IGF-1R because IGF-1R as a receptor tyrosine kinase activates PI3K in the presence of IGF-1. To exclude the potential effects of C96 on IGF-1 signaling, LP1 and JJN3 cells were starved overnight followed by C96 or S14161 treatment for 2 hrs, and IGF-1 stimulation for 15 min. As expected, IGF-1 triggered AKT phosphorylation but it was suppressed by both C96 and the proven PI3K inhibitor S14161 without affecting total AKT expression (Figure 3A). […] Next, we evaluated other kinases including non-receptor kinase c-Src and a PI3K parallel kinase ERK which transduces external cellular signals. Both LP1 and JJN3 cells were treated with C96 at increasing concentrations that inhibited AKT and mTOR activation (Figure 2C).
Figure 3 C96 inhibits AKT but not IGF-1R, ERK or c-Src kinase activation (A) LP1 and JJN3 cells were starved overnight, then treated with 100 (μM of C96 or S14161 for 2 hrs, followed by IGF-1 (100 ng/mL) for 15 min. After incubation, cells were harvested and the expression of p-AKT, p-IGF-1R, total AKT (T-AKT), and IGF-1R proteins were detected by immunoblotting. (B) LP1 and JJN3 were treated with C96 at indicated concentrations for 24 hrs followed by immunoblotting assay for the expression of p-Src, c-Src, p-ERK, and ERK. GAPDH was used as a loading control. […]

[2] = system: MM cell; parameters: method as in PMID 24013662; conditions: cited from earlier work
[3] = system: PI3Kγ and δ; parameters: method as in PMID 20505158; conditions: read-out: IC50s in inhibiting PI3K activity; cited from earlier work
[4] = system: MM cell; parameters: method as in PMID 20505158; conditions: cited from earlier work

CCOc1cccc2c1OC(c1ccc(F)cc1)C([N+](=O)[O-])=C2 (stereo not shown) [S14161, reference compound]
AKT phosphorylation triggered by IGF-1 [1]: suppressed

COc1c(OCCCN2CCOCC2)ccc2c1N=C(NC(=O)c1cnc(N)nc1)N1CCN=C21 [BAY80-6946]
concentration required to inhibit MM cell proliferation [2]: more than 1000 nM

CC[C@H](Nc1ncnc2[nH]cnc12)c1nc2cccc(F)c2c(=O)n1-c1ccccc1 [CAL-101]
IC50 [3]: ~2.5 nM
concentration needed to induce MM cell death [4]: more than 10 μM

— PMC4116524, “A virtual screen identified C96 as a novel inhibitor of phosphatidylinositol 3-kinase that displays potent preclinical activity against multiple myeloma in vitro and in vivo” (Oncotarget, 2014)
